40 molecules from PubChem BioAssay AID2253 (Southern Research Specialized Biocontainment Screening …, 2010) can be followed below.

The test system of the experiment is THP-1 viability, CellTiter-Glo luminescence, 72 h. As to the kind of experiment: human monocytic cell viability reduction – S. typhimurium screen hits, cytotoxicity control for Salmonella PhoP regulon inhibitors, dose response (AID 2253).

As to `Cc1conc1NC(c1cccs1)c1ccc2cccnc2c1O` (stereo not given), the EC50 (commonly the concentration at which the effect is half-maximal) is 5.5 µM. For the molecule `Cc1ccccc1-n1nnnc1Sc1nnnn1-c1ccccc1`, the EC50 was 12 µM.

Turning to `c1ccc(CN2CCN(c3nc(NCc4ccco4)c4ccccc4n3)CC2)cc1`, the EC50 was 20.6 µM. The same measure for `COc1cccc2[nH]c3c(N4CCN(Cc5ccc6c(c5)OCO6)CC4)ncnc3c12`: 47.9 µM; for `COc1ccc(C)cc1NC(=O)C(Sc1nnc(-c2ccncc2)n1-c1ccc(Cl)cc1)c1ccccc1` (stereo not given): 22 µM.

For the molecule `CCCCCNCC(=O)Nc1cccc(C(=O)Nc2cccc(C(F)(F)F)c2)c1`, the EC50 is 12.4 µM. In the case of `CCOC(=S)SCC(=O)Nc1nc(-c2ccccc2)cs1`, the EC50 is 4.91 µM. The same measure for `CC1OC(Nc2cccc3ccccc23)C(O)C(O)C1O` (stereo not given): 12 µM; for `Cc1ccc(S(=O)(=O)N(CC(=O)N=Nc2c(O)[nH]c3ccccc23)c2ccc(C)c(C)c2)cc1`: 12.4 µM; for `COc1ccc(C(=O)N2CCc3cc(OC)c(OC)cc3C2)cc1OC`: 36.7 µM. In the case of `O=C(Cc1n[nH]c(=O)c2ccccc12)OCC(=O)c1ccc2c(c1)OCCO2`, the EC50 was 1.34 µM. Take `Cc1ccc(Nc2cc(C)c3c(O)cccc3n2)cc1C`: the EC50 was 15.2 µM. The result for `COc1ccc(/C=C/C(=O)NC(=S)NNC(=O)c2cnccn2)cc1` reads 2.02 µM; that for `NNC(=S)Nc1ccc(Cl)cc1`, 48.1 µM. The same measure for `O=C(c1ccccc1)c1c2c(cc3sc4ccccc4[n+]13)-c1cccc3cccc-2c13`: 1.28 µM; for `N/C(=N\OC(=O)N1c2ccccc2Sc2ccccc21)c1ccccc1`: 25.1 µM. For the molecule `CC[n+]1c(/C=C/c2ccc(N(C)C)cc2)ccc2ccccc21`, the EC50 was 0.64 µM. The result for `COc1cc(C(=O)Oc2c(CN3CCOCC3)cc(Cl)c3cccnc23)cc(OC)c1OC` reads 4.46 µM. For the molecule `O=C(NNc1nc(-c2ccccc2)cs1)c1ccccc1`, the EC50 is 26.1 µM. Consider `CN1/C(=C\C=C\C2=[N+](C)c3ccc4ccccc4c3C2(C)C)C(C)(C)c2ccccc21`, for which the concentration giving a half-maximal response (EC50) was 0.15 µM. `COC(=O)c1cc(C)nc2c1C(=O)C(=O)C=C2N1CCOCC1`: the EC50 is 2.97 µM.

As to `O=C(CN1CCCc2ccccc21)N/N=C/c1c(O)ccc2ccccc12`, the EC50 was 3.11 µM.

Consider `OCCNCc1c(OCc2ccc(Cl)cc2)ccc2ccccc12`, for which the EC50 was 7.52 µM. Regarding `CNc1cc(Cl)c2nonc2c1[N+](=O)[O-]`, the EC50 was 3.65 µM.

`Cc1ccccc1Nc1cc(C)c2c(O)cccc2n1`: the EC50 was 7.56 µM. As to `CCCCOc1ccc(Cc2cnc(N)nc2N)cc1`, the EC50 is 41.5 µM. For the molecule `Oc1ccc(-c2n[nH]c(=S)n2-c2ccc3c(c2)OCCO3)c(O)c1`, the EC50 is 33.8 µM.

Consider `CCCCCCCNC(=O)C1(CC2CC(c3ccc(Cl)cc3)=NO2)CCNCC1` (stereo not given), for which the EC50 is 5.66 µM. Regarding `Cc1c(C(=O)Nc2cccc(Cl)c2)c2ccccn2c1CCc1ccncc1`, the EC50 was 24.7 µM. As to `CNc1nc(NCc2ccccc2)c2ccccc2n1`, the EC50 is 10 µM. Consider `CCOc1ccc(-n2c(SCc3nc(-c4ccc(C)cc4)no3)nnc2-c2ccncc2)cc1`, for which the EC50 was 28.3 µM. Regarding `CCCCCCCCCn1c2c(c(=N)c3c1CCC3)CCC2`, the EC50 is 0.42 µM. The result for `COc1cc(/C=C/[N+](=O)[O-])ccc1O` reads 12.6 µM. With `O=C(N/N=C/c1cccc([N+](=O)[O-])c1O)c1cccs1`, the EC50 was 13.4 µM. Regarding `CCc1ccc2[nH]c(=O)c(CN(Cc3ccccc3)C(=O)Nc3ccccc3OC)cc2c1`, the EC50 is 43.1 µM. Take `CCCCCCCCNC(C)C(O)c1ccc(SC(C)C)cc1` (stereo not given): the EC50 is 10.7 µM. As to `Nc1ncn([C@@H]2O[C@H](CO)[C@@H](O)[C@H]2O)c(=O)n1`, the EC50 is 17.4 µM. As to `COc1ccc(Nc2sc(C(=O)Nc3cccc(Cl)c3)c(N)c2C(=O)Nc2ccccc2OC)cc1`, the EC50 is 25.7 µM. As for `Cc1nc2c(=O)n(C)c(=O)nc-2n(C)n1`, the EC50 is 1.22 µM. As to `Cc1cc(/C=N/n2cnnc2)c(C)n1-c1ccc(OCc2ccc(F)cc2)cc1`, the EC50 was 12.7 µM.
